In ChEMBL document CHEMBL1128412, “Mechanism-based development of new antimalarials: synthesis of derivatives of artemisinin attached to iron chelators” (J Med Chem, 1995):

What was measured:
Plasmodium falciparum [1] = assay: In vitro antimalarial activity against Plasmodium falciparum in 20 mM FeCl3; format: functional, organism-based
Plasmodium falciparum [2] = assay: In vitro antimalarial activity against Plasmodium falciparum; format: functional, organism-based

SMILES | IC50 (Plasmodium falciparum [1]) [µM] | IC50 (Plasmodium falciparum [2]) [µM]
C[C@H]1[C@@H](OCCCOc2c(O)cccc2O)O[C@@H]2O[C@@]3(C)CC[C@H]4[C@H](C)CC[C@@H]1[C@@]24OO3 | 0.00921 | 0.00767
C[C@H]1[C@@H](OCCCBr)O[C@@H]2O[C@@]3(C)CC[C@H]4[C@H](C)CC[C@@H]1[C@@]24OO3 |  | 0.00368
C[C@H]1[C@@H](OCCCONC(=O)c2ccccc2)O[C@@H]2O[C@@]3(C)CC[C@H]4[C@H](C)CC[C@@H]1[C@@]24OO3 | 0.0329 | 0.0236
C[C@H]1[C@@H](OCCCOc2coc(CO)cc2=O)O[C@@H]2O[C@@]3(C)CC[C@H]4[C@H](C)CC[C@@H]1[C@@]24OO3 | 0.0168 | 0.00955
CCN(CC)C(=S)SCCCO[C@H]1O[C@@H]2O[C@@]3(C)CC[C@H]4[C@H](C)CC[C@@H]([C@H]1C)[C@@]24OO3 |  | 0.00765
COC(=O)/C=C/c1ccc(OCCCO[C@H]2O[C@@H]3O[C@@]4(C)CC[C@H]5[C@H](C)CC[C@@H]([C@H]2C)[C@@]35OO4)c(O)c1 | 0.00338 | 0.00478
C[C@H]1[C@@H](OCCC2Oc3cccc(O)c3O2)O[C@@H]2O[C@@]3(C)CC[C@H]4[C@H](C)CC[C@@H]1[C@@]24OO3 (some centres undefined) |  | 0.00664
C[C@H]1[C@@H](OCCC2ON2C(=O)c2ccccc2O)O[C@@H]2O[C@@]3(C)CC[C@H]4[C@H](C)CC[C@@H]1[C@@]24OO3 (some centres undefined) |  | 0.00425
C[C@H]1[C@@H](OCCCONC(=O)c2ccccc2O)O[C@@H]2O[C@@]3(C)CC[C@H]4[C@H](C)CC[C@@H]1[C@@]24OO3 | 0.0487 | 0.0525
C[C@H]1[C@@H](OCCCOc2cccc(O)c2O)O[C@@H]2O[C@@]3(C)CC[C@H]4[C@H](C)CC[C@@H]1[C@@]24OO3 |  | 0.0127
C[C@@H]1CC[C@H]2[C@@H](C)C(=O)O[C@@H]3O[C@@]4(C)CC[C@@H]1[C@]32OO4 [ARTEMISININ] | 0.00541 | 0.00582
C[C@H]1[C@@H](O)O[C@@H]2O[C@@]3(C)CC[C@H]4[C@H](C)CC[C@@H]1[C@@]24OO3 [ARTENIMOL] |  | 0.0011
O=C(NO)c1ccccc1 [BENZOHYDROXAMATE] |  | 17.6
O=C(O)/C=C/c1ccc(O)c(O)c1 [CAFFEIC ACID] |  | 122
O=c1cc(CO)occ1O [KOJIC ACID] |  | 1580
COC(=O)/C=C/c1ccc(O)c(O)c1 [METHYLCAFFEATE] |  | 46.5
Oc1cccc(O)c1O [PYROGALLOL] |  | 5.66
O=C(NO)c1ccccc1O [SALICYLHYDROXAMIC ACID] |  | 107
